Values joined by “and” are separate entries in the source; they are usually repeats but may differ in a detail not shown here. Equal entries are not always repeated.
How the values were obtained:
[1] = test system: U138-MG cells; experiment: Boyden chamber migration (chemotaxis), U138-MG; assay type: cell-based, human; settings: for migration, % of basal, average 2 expts: mean of 2 expts; for migration, % of basal, average expt 1: mean of expt 1; for migration, % of basal, average expt 2: mean of expt 2; for migration, % of basal, T-test list: single replicates of both expts
Method: The migration and invasion assays were performed using Boyden chambers and 8 µm pore size PVP-free filters coated with 50 µg/mL of collagen type VI (Sigma), as previously described. For the invasion assays, collagen-coated filters were further coated with 50 µg/mL Matrigel^TM (Sigma). Briefly, 11 × 10^4 U87-MG, 4 × 10^4 U251-MG, or 4 × 10^4 U138-MG/sample were pre-treated for 40 min at 37 °C with the indicated effectors. Then, the cells were allowed to migrate for 3 h or to invade for 5 h at 37 °C toward 5% FBS in DMEM/0.1% BSA. At the end of both assays, the cells on the lower filter surface were fixed, stained with haematoxylin, and counted under an optical microscope (Zeiss Axiophot, Carl Zeiss, Milan, Italy) at 20× magnification. The migration and invasion experiments were conducted in triplicate for U87-MG and in duplicate for U251-MG and U138-MG. The migrated or invaded cells were reported as percentage of basal migration or invasion in the presence of DMEM/0.1% BSA, taken as 100%, and analyzed as reported in Section 2.11.
Figure 3 Inhibition of U87-MG, U251-MG, and U138-MG GBM cellular migration by uPAcyclin. Quantitative analysis of U87-MG (A), U251-MG (B), and U138-MG (C) directional migration. A total of 11 × 10^4 U87-MG/sample or 4 × 10^4 U251-MG or U138-MG/sample were pre-treated for 40 min at 37 °C with uPAcyclin or S-peptide at the indicated concentrations, anti-αV polyclonal (anti-αV Pclonal) or monoclonal (anti-αV MoAb) antibody, or anti-GAPDH, and anti-α2 monoclonal antibody (anti-α2 MoAb), and then assayed in Boyden chambers at 37 °C, either for basal (BSA) or directional 5% FBS-dependent migration for 3 h at 37 °C. At the end of incubation, the filters were processed as described in Methods. Basal migration was taken as 100% and all values were calculated relative to that (* p-value < 0.05; ** p-value < 0.005; *** p-value < 0.001).

[2] = test system: C6 cells; experiment: Wound healing assay, C6; assay type: cell-based, rat
Method: The wound healing assay or scratch test was performed as previously reported. Briefly, 6 × 10^3 U87-MG cells were seeded in multiwell-12 plates containing culture inserts for live cell analysis (Ibidi, Gmbh, Martinsried, Germany) and grown to confluence in DMEM/10% FBS for 24 h. After removing the inserts, the cells were pre-treated for 40 min at 37 °C with uPAcyclin or diluents at the indicated concentrations, and then incubated in DMEM/3% FBS for 24 h. The images were taken using the Inverted Microscope Leica DMI6000 DFC 402 (Leica Microsystems, Milan, Italy). A total of 10 × 10^4 C6 cells were grown to confluence in 12-well plates, in the presence of DMEM/10% FBS. […] To quantitate cell migration, a rectangle covering the wound edges is drawn on the T0 image and is further applied to the single photograms of each sample. The average margin distance is measured at three points and the results are expressed as percentage wound width of the T0 distance, taken as 100%.
Figure 5 Wound healing assay of U87-MG and C6 cells, in the presence of uPAcyclin. […] (C) For both U87-MG and C6, the wound width at time 0 is taken as 100% and the wound width at T24 or T16 is calculated as relative to that (* p-value < 0.05; ** p-value < 0.005; *** p-value < 0.001).

[3] = test system: C6 cells; experiment: Cell viability/proliferation (Trypan blue, MTT), C6; assay type: cell-based, rat; settings: C6, Trypan blue exclusion and MTT
Method: Cell viability was tested in DMEM/10% FBS, in the presence of 1 nM or 100 nM uPAcyclin, either by Trypan blue exclusion or by thiazolyl blue tetrazolium bromide (MTT) assays, as specified in the figure legends. For the Trypan blue assay, 4 × 10^4 U87-MG, U251-MG, U138-MG, and C6 cells/sample were grown in 12-well plates, and followed for 24, 48 and 72 h. As a negative control, the cells were grown in a serum-free medium. Then, the cells were detached, stained with a 0.2% (w/v) Trypan blue solution, counted using a Burker chamber (T0 = 100%), and reported as number of viable cells/total.
For the MTT assay, 5 × 10^3 U87-MG and C6 cells/well were grown in 96-well plates for 24 h and tested as previously described. Briefly, MTT (Invitrogen-Life Technologies, Eugene, OR, USA) 5 mg/mL in a PBS solution was added to wells at a 10% final concentration, and incubated for 3 h at 37 °C, followed by the addition of stop solution (100 µL of DMSO/well) for 1 h at room temperature. Then, the optical densities were measured at 495 nm using the Microplate Reader (Synergy HT, Bio-Tek, Winoosky, VT, USA). The cell viability rate was calculated as a percentage by reporting the mean absorbance of treated groups to control groups, as follows: Cell viability rate (%) = (Atreated group/Acontrol group) × 100.

[4] = 1 nM, 5% FBS, 3 h, expt 1, duplicates
[5] = 1 nM, 5% FBS, 3 h, expt 2, duplicates
[6] = 100 nM, 5% FBS, 3 h, expt 1, duplicates
[7] = 100 nM, 5% FBS, 3 h, expt 2, duplicates

With “Ac-K^1P[ESPPEELK^10]-NH2 (sidechain bridge or staple) [uPAcyclin]” the inhibition of migration ([1]; 1 nM, U138-MG, 5% FBS, 3 h) was 70–80%, the “migrated cells n°/field” value [1, 4] was 8 cells n°/field and 7 cells n°/field and the “migration, % of basal” value [1, 4] was 114% and 100%. For the same substance, the “migrated cells n°/field” value [1, 5] was 8 cells n°/field and 10 cells n°/field, the “migration, % of basal” value [1, 5] was 100% and 125% and the “migration, % of basal, average 2 expts” value ([1]; 1 nM, 5% FBS, 3 h) was 110%. For the same substance, the “migration, % of basal, average expt 1” value ([1]; 1 nM, 5% FBS, 3 h) was 107%, the “migration, % of basal, average expt 2” value ([1]; 1 nM, 5% FBS, 3 h) was 113% and the “migration, % of basal, T-test list” value ([1]; 1 nM) was 114 and 100 and 125. The “migration, in words” value ([1]; 100 nM, U138-MG, 5% FBS, 3 h) was “below background levels”, the “migrated cells n°/field” value [1, 6] was 7 cells n°/field and 5 cells n°/field and the “migration, % of basal” value [1, 6] was 100% and 71%. The “migrated cells n°/field” value [1, 7] was 6 cells n°/field and 7 cells n°/field, the “migration, % of basal” value [1, 7] was 75% and 88% and the “migration, % of basal, average 2 expts” value ([1]; 100 nM, 5% FBS, 3 h) was 84%. For the same substance, the “migration, % of basal, average expt 1” value ([1]; 100 nM, 5% FBS, 3 h) was 86%, the “migration, % of basal, average expt 2” value ([1]; 100 nM, 5% FBS, 3 h) was 82% and the “migration, % of basal, T-test list” value ([1]; 100 nM) was 100 and 71 and 75 and 88. The “wound closure, in words” value ([2]; 10 pM or 100 nM, C6, 16 h) was “dose-dependent inhibition of wound closure”, the “reduction of wound healing rate closure” value ([2]; C6, abstract) was 50% and the proliferation/viability [3] was “proliferation and viability are not affected by uPAcyclin”.

— paper PMC10571957, “αV-Integrin-Dependent Inhibition of Glioblastoma Cell Migration, Invasion and Vasculogenic Mimicry by the uPAcyclin Decapeptide” (Cancers, 2023)
